Laboratory results from paper PMC6837341, “Evolutionarily conserved susceptibility of the mitochondrial respiratory chain to SDHI pesticides and its consequence on the impact of SDHIs on human cultured cells” (PLoS ONE, 2019).
Read-outs that look alike come from different tables or passages of the source.

Columns and labels:
[1] = biological target: succinate cytochrome c reductase (SDH+CIII) (Homo sapiens, UniProt O14521+P21912+Q99643); experiment: Malonate-sensitive succinate cytochrome c reductase (SCCR) activity, freeze-thawed HEK cells; assay type: biochemical; design: the pellets were permeabilized by two freeze-thaw cycles before enzyme assays; endogenous in cells; host or cells: HEK293, freeze-thawed cell pellets; details: no exogenous quinone
Experimental: The cells were grown in T75 flasks using 10 ml Dulbecco’s modified Eagle's minimal essential medium (DMEM) either containing 1 or 4.5 g/l glucose, 4 mM glutamine (glutamax; Gibco Thermo Fisher Scientific, MA), 2 mM pyruvate and 200 μM uridine (permissive medium, thereafter referred as GlucoMax) or lacking glucose, pyruvate and uridine but containing 4 mM glutamine (nonpermissive medium, thereafter referred as MitoMax; S1 Table). All media were supplemented with 10% fetal calf serum and 100 U/mL each penicillin and streptomycin. HEK293 human embryonic kidney cells were cultured in DMEM containing 4.5 g/L glucose, 4 mM glutamine, 10% fetal calf serum, 200 μM uridine, 2 mM pyruvate, and 100 U/mL each penicillin and streptomycin [9]. Cell pellets (1,500 g for 5 min) were kept frozen (-80°C), and for biochemical studies, the pellets were permeabilized by two freeze-thaw cycles before enzyme assays.
(§1) RC enzyme activities were spectrophotometrically measured using a pseudo-double-wavelength spectrophotometer (Cary 60, Agilent). Malonate-sensitive succinate quinone dichlorophenolindophenol (DCPIP) reductase (SQDR), as an indicator of the activity of the isolated SDH enzyme (isolated CII), and glycerol-3-phosphate quinone DCPIP reductase (GQDR), as a measure of the activity of the isolated glycerol-3-phosphate dehydrogenase (G3PDH), were assayed as previously described. To study the effect of SDHIs on the RC, we had to take into consideration the fact that these inhibitors act through binding to quinone-binding sites in the RC. Accordingly, we observed that the extent of the inhibitory effects of these substances varies with the addition of exogenous quinones (Fig 1). […] With this aim, we measured the malonate-sensitive succinate cytochrome c reductase (SDH+CIII), glycerol-3-phosphate cytochrome c reductase (G3PDH+CIII) and antimycin-sensitive quinol cytochrome c reductase (CIII) as previously described.
(§2) The effects of eight different SDHIs (up to 500 μM; S2 Fig) were determined on four different biological materials. Because IC50 are known to be affected by the actual absolute activity of the tested enzyme, these IC50 were quantified using similar levels of SDH enzyme activity during the assay. IC50 values were determined using the AAT Bioquest IC50 calculator tool (https://www.aatbio.com/tools/ic50-calculator).

[2] = biological target: T1, succinate cytochrome c reductase (SDH+CIII) (Botrytis cinerea, UniProt A0A384J5E4+D2IH01+D2IH03); experiment: SCCR activity, Botrytis cinerea mitochondria; assay type: biochemical
T1 sequence (A0A384J5E4 30-300): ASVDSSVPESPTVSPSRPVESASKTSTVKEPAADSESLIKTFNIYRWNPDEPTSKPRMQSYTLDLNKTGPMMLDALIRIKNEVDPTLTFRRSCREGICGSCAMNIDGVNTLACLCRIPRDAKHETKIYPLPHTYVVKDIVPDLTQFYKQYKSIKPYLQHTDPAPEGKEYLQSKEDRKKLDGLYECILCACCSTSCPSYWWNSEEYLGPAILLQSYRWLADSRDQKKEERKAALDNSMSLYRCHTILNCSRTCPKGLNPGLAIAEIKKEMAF
T1 sequence (D2IH03 46-189): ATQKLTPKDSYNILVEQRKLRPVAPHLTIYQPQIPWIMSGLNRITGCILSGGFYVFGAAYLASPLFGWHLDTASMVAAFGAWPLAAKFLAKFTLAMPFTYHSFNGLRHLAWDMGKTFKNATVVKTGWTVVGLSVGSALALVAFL
T1 sequence (D2IH01 64-192): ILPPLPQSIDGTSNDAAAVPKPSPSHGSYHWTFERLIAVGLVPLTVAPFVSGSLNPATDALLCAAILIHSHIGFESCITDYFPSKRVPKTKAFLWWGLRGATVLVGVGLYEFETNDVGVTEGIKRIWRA
Experimental: The mixed population of B. cinerea fungi used in this study was kindly provided by Dr. Joelle Dupont (Museum National d’Histoire Naturelle, Paris, France). Conidia from Botrytis cinerea were obtained from 15–30 d cultures grown on malt medium agar plates. Mycelial colonies were prepared by seeding conidia from 10 colonies in liquid medium (10 g of glucose, 2 g of KH2PO4, 0.5 g of MgSO47H2O, 1 g of (NH4)2SO4, 2 g of yeast extract and deionized water up to 1 l, pH 6.2). Incubation was performed at 23°C until hyphae totally covered the surface of the bottle. The hyphae (9-cm-diameter disks) were harvested, washed twice with refrigerated distilled water and finally with mitochondria extraction medium containing 20 mM Tris (pH 7.2), 0.25 M sucrose, 40 mM KCl, 2 mM EGTA, 1 mg/ml BSA, and no cysteine. The hyphae were suspended in 150 ml of extraction medium, cut in small pieces (1 cm^2) and then disrupted at high speed for 1×2 sec and at low speed for 2×3 sec using a MultiMoulinex mixer (Moulinex, France). The suspension of disrupted hyphae was then filtered through two layers of nylon cloth (clearance 150 μm). The cloth was washed with 50 ml of extraction medium. After low-speed centrifugation (700 g for 15 min), the mitochondria were collected at 10,000 g for 20 min. The pellet was suspended in 250 μl of extraction medium, aliquoted (± 30 μl) and kept frozen at -80°C.
as §1, with “described.” for “described. To study the effect of SDHIs on the RC, we had to take into consideration the fact that these inhibitors act through binding to quinone-binding sites in the RC. Accordingly, we observed that the extent of the inhibitory effects of these substances varies with the addition of exogenous quinones (Fig 1).”
as §2

[3] = Botrytis cinerea mitochondria, read-out: IC50 SCCR

Sequence of succinate cytochrome c reductase (SDH+CIII) (Homo sapiens, UniProt O14521+P21912+Q99643) (P21912 29-280): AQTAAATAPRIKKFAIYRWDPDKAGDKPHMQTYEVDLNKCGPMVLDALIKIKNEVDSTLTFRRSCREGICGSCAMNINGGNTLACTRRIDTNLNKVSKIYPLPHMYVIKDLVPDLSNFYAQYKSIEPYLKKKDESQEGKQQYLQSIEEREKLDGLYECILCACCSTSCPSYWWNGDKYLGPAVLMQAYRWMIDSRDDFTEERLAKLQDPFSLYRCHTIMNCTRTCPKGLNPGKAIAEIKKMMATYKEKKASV
Sequence of succinate cytochrome c reductase (SDH+CIII) (Homo sapiens, UniProt O14521+P21912+Q99643) (Q99643 30-169): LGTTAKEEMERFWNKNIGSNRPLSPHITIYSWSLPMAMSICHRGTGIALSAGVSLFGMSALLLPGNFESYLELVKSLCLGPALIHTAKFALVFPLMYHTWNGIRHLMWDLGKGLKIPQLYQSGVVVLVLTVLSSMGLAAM
Sequence of succinate cytochrome c reductase (SDH+CIII) (Homo sapiens, UniProt O14521+P21912+Q99643) (O14521 57-159): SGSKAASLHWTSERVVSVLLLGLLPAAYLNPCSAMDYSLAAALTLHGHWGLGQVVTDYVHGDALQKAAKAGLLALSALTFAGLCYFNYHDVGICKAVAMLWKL
Sequence of succinate cytochrome c reductase (SDH+CIII) (Homo sapiens, UniProt O14521+P21912+Q99643) (P31040 43-664 partner): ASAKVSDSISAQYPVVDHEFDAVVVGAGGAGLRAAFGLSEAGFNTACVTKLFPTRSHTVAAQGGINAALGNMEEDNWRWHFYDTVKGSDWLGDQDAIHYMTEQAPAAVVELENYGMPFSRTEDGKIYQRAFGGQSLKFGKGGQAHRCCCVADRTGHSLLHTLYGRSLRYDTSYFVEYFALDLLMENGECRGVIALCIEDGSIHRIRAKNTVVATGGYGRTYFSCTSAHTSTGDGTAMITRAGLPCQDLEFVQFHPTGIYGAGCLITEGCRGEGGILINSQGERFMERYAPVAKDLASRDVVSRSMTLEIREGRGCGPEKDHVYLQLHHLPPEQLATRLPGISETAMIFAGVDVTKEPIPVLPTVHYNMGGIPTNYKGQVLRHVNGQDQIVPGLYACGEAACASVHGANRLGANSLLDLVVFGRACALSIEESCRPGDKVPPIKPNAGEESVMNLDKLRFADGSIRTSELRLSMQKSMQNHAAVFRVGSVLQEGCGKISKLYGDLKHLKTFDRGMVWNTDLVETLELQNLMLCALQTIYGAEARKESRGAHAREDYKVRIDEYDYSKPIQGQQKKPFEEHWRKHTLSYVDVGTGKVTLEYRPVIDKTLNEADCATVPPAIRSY

CC(C)Oc1cccc(NC(=O)c2ccccc2C(F)(F)F)c1 [Flutolanil, flutolanil] showed an IC50 ([1]; n ≥ 3, read-out: IC50 SCCR) of 18700 nM and an IC50 [2] of 8600 nM.

CC(C)C1C2CCC1c1c(NC(=O)c3cn(C)nc3C(F)F)cccc12 (centres unmarked) [Isopyrazam, isopyrazam] was tested, and the IC50 ([1]; n ≥ 3, listed as isopyrazam, read-out: IC50 SCCR) was ≤ 1000 nM, the IC50 ([1]; n ≥ 3, read-out: IC50 SCCR) was 630 nM and the IC50 [2, 3] was 23 nM.

Work on O=C(Nc1ccccc1-c1ccc(Cl)cc1)c1cccnc1Cl [Boscalid, boscalid] yielded an IC50 ([1]; IC50 SCCR, n ≥ 3) of 4800 nM and an IC50 [2] of 800 nM.

With Cc1nn(C)c(F)c1C(=O)Nc1ccccc1C(C)CC(C)C (centres unmarked) [Penflufen, penflufen] the IC50 ([1]; n ≥ 3, listed as penflufen, read-out: IC50 SCCR) was ≤ 1000 nM, the IC50 ([1]; n ≥ 3, read-out: IC50 SCCR) was 1300 nM and the IC50 [2, 3] was 130 nM.

With Cn1cc(C(=O)Nc2ccc(F)cc2-c2ccc(Cl)c(Cl)c2)c(C(F)F)n1 [Bixafen, bixafen] the IC50 ([1]; n ≥ 3, listed as bixafen, read-out: IC50 SCCR) was ≤ 1000 nM, the IC50 ([1]; n ≥ 3, read-out: IC50 SCCR) was 340 nM and the IC50 [2, 3] was 70 nM.

Compound CC(C)CC(C)c1sccc1NC(=O)c1cn(C)nc1C(F)(F)F (centres unmarked) [Penthiopyrad, penthiopyrad] has an IC50 ([1]; IC50 SCCR, n ≥ 3) of 3700 nM and an IC50 [2] of 45 nM.

Work on Cn1cc(C(=O)Nc2ccccc2-c2cc(F)c(F)c(F)c2)c(C(F)F)n1 [Fluxapyroxad, fluxapyroxad] yielded an IC50 ([1]; n ≥ 3, read-out: IC50 SCCR) of 2100 nM and an IC50 [2, 3] of 95 nM.
